Reference: patent US10987382B2, “Solanum dubium seeds and honey (extracted from bee hives in Acacia tree populated area) combination for treatment of asthma and bronchial asthma” (priority 2015, dated 2021)

Test system: Carrageenan induced paw oedema in Wister Rats
Experiment: Carrageenan induced paw oedema (anti-inflammatory activity)
Type: in vivo, rat
Conditions: for % reduction in edema volume: 40 mg/kg i.p.
Procedure: And anti-inflammatory study of aqueous crude extract of S. dubuim seeds, honey and S. dubuim seeds and honey (combination) on Wister Rats (42 rats), done to evaluate the anti inflammatory effects in animals using the method of Carrageenan induced paw oedema. (Nayak and Patel, 2010).
The first group serve as control and receive normal saline (1 ml/kg, orally), the second group served as standard and were administrated standard drug diclofenac sodium (100 mg/kg i.p.). The remaining groups were treated with, the third group received honey (2 ml/kg, orally), the fourth group are treated with the S. dubium seeds (2 ml/kg orally), the fifth group are treated with combination (2 ml/kg orally), the sixth group are treated with combination (4 ml/kg orally) and group seventh treated with standard drug hydrocortisone (40 mg/kg i.p.). A mark was made on both the hind paws just below the tibio-tarsal junction. After 30 min of the above treatment an inflammatory oedema was induced in the left hind paw by inject 0.1 ml solution of Carrageenan, in the planter tissue of all the animals. The paw volume was measured at first hour and followed every hour till the fifths hour after administration of carrageenan of each group. The difference between the initial and subsequence reading gave the actual edema volume. […] 100 mg/kg.
Finally the results of the anti-inflammatory activity of the fractions of methanolic extract (144) Wister Rats. […] Also the alcoholic extract of all fractions decreased rat paw edema at the end of 5th hour. The paw volume was measured initially at 0, 1, 2, 3, 4 and 5 h after Carrageenan injection using digital paw edema meter. Percent inhibition of inflammation was calculated using the formula: % Inhibition=100(1−vt/vc). Where (vc) represents edema volume in control and (vt) edema volume in group treated with sample.

C[C@]12CCC(=O)C=C1CC[C@@H]1[C@@H]2[C@@H](O)C[C@@]2(C)[C@H]1CC[C@]2(O)C(=O)CO [hydrocortisone]
% reduction in edema volume (after 4 hour): 70.39% | % reduction in edema volume (after 5 hour): 76.35%

O=C(O)Cc1ccccc1Nc1c(Cl)cccc1Cl [diclofenac sodium]
inhibition at 100 mg/kg (Rattus norvegicus, ip, 100 mg/kg i.p., after 4 hour, read-out: % inhibition of paw edema): 74.3%
